Measured values taken from patent publication US20260144807A1, “METHOD OF ADMINISTRATION OF A PARENTERAL FORMULATION COMPRISING A P[…]” (Cybin UK LTD, priority 2022, published 2026).

What was measured:
healthy volunteers = conditions: single oral dose, interim analysis; cited from earlier work
healthy adults [1] = assay: Tolerability question after psychedelic experience, NCT04673383 Part A; assay type: in vivo, human; conditions: all healthy volunteers, highest doses tested
Excerpt: Tolerability may be assessed following cessation of the subjective psychedelic experience by asking the patent the question ‘Do you wish you had not gone through that experience?’ Yes responses are deemed to indicate poor tolerability, while No responses are deemed to indicate good tolerability.
All patient participants in this study, after receiving one dose of DMT fumarate, answered NO to the question ‘Do you wish you had not gone through that experience?’, indicating good tolerability of the psychedelic agent. In Part A of the same study, healthy adults received single escalating doses of DMT fumarate. All healthy volunteers answered “no” to the same question at the highest doses tested.

[2] = tested on: patients with major depressive disorder; assay: Challenging Experience Questionnaire (CEQ), NCT04673383 Part B; assay type: in vivo, human
Excerpt: (§1) Garcia-Romeu and Richards (International review of Psychiatry, Vol. 30, 2018, issue 4, pp 291-316) discuss the use of serotonergic hallucinogens in clinical interventions and state ‘issues, such as recent suicidality, drug or alcohol use disorders, dissociative disorders, and past history of trauma should be taken into account depending on the therapeutic target, as these may be exacerbated by high-dose psychedelic administration or increase risk for adverse events. ‘They further state: Psychodynamic-autobiographical experiences are predominated by emotional recollections and reflections on significant previous or current life events and relationships. […] A patient's subjective experience may be evaluated by the Challenging Experience Questionnaire (CEQ), a questionnaire designed to measure challenging psychological experiences associated with a psychedelic experience.
(§2) The administration of the study drug, DMT fumarate, in NCT04673383, Part B was in accordance with the present invention. Group A received one dose of active (DMT fumarate) on Day 1 and were assessed using MADRS at Day 8 and Day 15. Group P received a placebo on Day 1, and were also assessed at Day 8 and Day 15. […] Group P subsequently received one dose of active in the open label phase of the study on Day 15 and were assessed at Day 22 and 29. […]

[3] = tested on: patients with major depressive disorder; assay: MADRS assessment, NCT04673383 Part B, IV infusion over about 10 minutes; assay type: in vivo, human; design: average percent reduction from baseline (MADRS) / Mean % reduction (MADRS): concentration or dose not given beside the values
Excerpt: Therapeutic benefit or efficacy may be assessed using a rating scale. For patients with a depressive disorder such as MDD or TRD, the Montgomery-Asberg Depression Rating Scale (MADRS), the Hamilton Depression Rating Scale (HAMD-17) or the Beck's Depression Inventory (BDI-II) may be used. The rating scale is used prior to administration of the psychedelic agent, to provide a baseline assessment, and again after administration of the psychedelic agent.
(§3) A double-blind, randomised, placebo-controlled study of intravenous doses of DMT fumarate, was carried out in patients with major depressive disorder, MDD, (ClinicalTrials.gov Identifier: NCT04673383, Part B). The protocol comprised the steps of:
• MADRS assessment by an independent assessor
(§4) • Administration of either a placebo or a dose of DMT fumarate by continuous intravenous infusion over a dosing period of about 10 minutes. • Tolerability assessment following cessation of the psychedelic experience. Study Day 8 (±1 day), Study Day 15 (±1 day) • MADRS assessment
• Administration of a dose of DMT fumarate by continuous intravenous infusion over a dosing period of about 10 minutes. • Tolerability assessment following cessation of the psychedelic experience. Study Day 22 (+1 day), Study Day 29 (+2 days), Day 45 (+2 days), Day 105 (+2 days) • MADRS assessment
The administration of the study drug, DMT fumarate, in NCT04673383, Part B was in accordance with the present invention. Group A received one dose of active (DMT fumarate) on Day 1 and were assessed using MADRS at Day 8 and Day 15. Group P received a placebo on Day 1, and were also assessed at Day 8 and Day 15. This comprised the blinded phase of the study. Group P subsequently received one dose of active in the open label phase of the study on Day 15 and were assessed at Day 22 and 29. Data from this group following administration of the active dose is represented as PA.
As described above, Group A received one dose of active (DMT fumarate) on Day 1 and were assessed at Day 8 and Day 15. Group P received a placebo on Day 1, and were also assessed at Day 8 and Day 15.

healthy adults [4] = assay: Challenging Experience Questionnaire (CEQ), NCT04673383 Part A; assay type: in vivo, human; conditions: active group, healthy participants
Excerpt: as §1, with “experience. […]” for “experience.”
The participant's experience was evaluated using the Challenging Experience Questionnaire (CEQ). In Part A of the study, a mean CEQ score of 0.172 was recorded for the active group, compared with a mean of 0.052 for the placebo group. […]

[5] = tested on: patients with major depressive disorder; assay: Warwick-Edinburgh Mental Wellbeing Scale (WEMWBS), NCT04673383 Part B; assay type: in vivo, human
Procedure: as §3
(§5) • Administration of either a placebo or a dose of DMT fumarate by continuous intravenous infusion over a dosing period of about 10 minutes. • Tolerability assessment following cessation of the psychedelic experience. Study Day 8 (±1 day), Study Day 15 (±1 day) • MADRS assessment […]
as §2
Further, a rapid and sustained improvement in wellbeing was observed following administration of at least one dose of DMT fumarate in accordance with the invention, with supportive therapy, as measured by the Warwick-Edinburgh Mental Wellbeing Scale (“WEMWBS”).

[6] = tested on: patients with major depressive disorder; assay: State-Trait Anxiety Inventory-Trait (STAI-T), NCT04673383 Part B; assay type: in vivo, human
Procedure: as §3, §4
• Administration of a dose of DMT fumarate by continuous intravenous infusion over a dosing period of about 10 minutes. • Tolerability assessment following cessation of the psychedelic experience. […]
as §2
Measures assessing patients' anxiety and wellbeing, areas which are often negatively impacted by depression, were also analysed across the study. […]

[7] = tested on: patients with major depressive disorder; assay: Beck Depression Inventory (BDI), NCT04673383 Part B; assay type: in vivo, human
Procedure: as §3, §5, §2
Analysis of patient-reported depression scores corroborated the MADRS assessments conducted by independent clinical raters. Improvements in depression scores from baseline were observed across all study timepoints in patients receiving at least one dose of active, as measured by the Beck Depression Inventory (“BDI”). […]

[8] = Drug related serious adverse events, NCT04673383; assay type: in vivo, human; conditions: reported at the date of filing
Procedure: A double-blind, randomised, placebo-controlled study of intravenous doses of DMT fumarate, was carried out in patients with major depressive disorder, MDD, (ClinicalTrials.gov Identifier: NCT04673383, Part B).

[9] = tested on: 3 healthy volunteers and 6 patients; conditions: 0.3 mg/kg, IV bolus; cited from earlier work
[10] = tested on: patients with major depressive disorder; conditions: baseline (7 subjects) vs 1 day after final administration of 0.1 mg/kg and 0.3 mg/kg doses (6 subjects); cited from earlier work
healthy participants = assay: Perceived duration of the psychedelic experience; assay type: in vivo, human; conditions: 9 mg IV
Excerpt: The onset and cessation of the psychedelic experience may be assessed by the attending clinician, psychiatrist or therapist. ‘Duration of the psychedelic experience’ as used herein refers to the time from the start of the continuous parenteral administration to the cessation of the psychedelic experience. The duration of the psychedelic experience may vary between patients. The term ‘duration’ as used herein, encompasses the mean duration of the psychedelic experience.
The safety and tolerability of a single intravenous dose of a deuterated analogue of DMT is being investigated in healthy participants in an on-going clinical trial. The administration of the deuterated analogue of DMT is in accordance with the present invention. Tolerability is assessed post-psychedelic experience by the question ‘Do you wish you had not gone through that experience?’.
A 9 mg dose of the deuterated analogue was administered in accordance with the present invention to a cohort of 6 psychedelic-experienced healthy participants. Preliminary data were compared with pharmacokinetic data from Part A of NCT04673383, Cohort 1 (9 mg DMT fumarate).
IRVAS is a rating scale which measures the intensity of the psychedelic experience. Additionally, the perceived duration of the psychedelic experience was in the range 37-57 minutes for the deuterated analogue, compared with approximately 25 minutes for DMT.

[11] = tested on: patients with major depressive disorder; assay: D'Souza et al. HAMD-17 scores; assay type: in vivo, human; conditions: 1 day after final administration of 0.1 and 0.3 mg/kg doses
Procedure: D'Souza et al report an ‘exploratory study of the dose-related safety, tolerability, and efficacy of dimethyltryptamine (DMT) in healthy volunteers and major depressive disorder’ (D. C. D'Souza, S. A. Syed, L. T. Flynn, H. Safi-Aghdam, N. V. Cozzi and M. Ranganathan, Neuropsychopharmacology (2022) 47:1854-1862). Seven patients with major depressive disorder received two doses of DMT hemifumarate (0.1 mg/kg, followed by 0.3 mg/kg) at least 48 hours apart. The participants were administered DMT by intravenous push over 30-60 seconds, i.e., a bolus injection.
D'Souza et al report that the mean change in HAMD-17 scores between baseline (7 subjects) and 1 day after final administration of both a 0.1 mg/kg and a 0.3 mg/kg dose (6 subjects) was −4.5 (Table S6). This improvement approximates to an improvement on the MADRS scale of −3.9.

[12] = tested on: healthy volunteer participants; conditions: all three healthy volunteers, 0.3 mg/kg, IV bolus; cited from earlier work
[13] = Group PA, 2 weeks, study Day 29
[14] = day 8, blinded data for all patients (average of placebo and DMT fumarate patients)
[15] = Group PA, open label phase, Day 105

## [2H]C([2H])([2H])N(C([2H])([2H])[2H])C([2H])([2H])C([2H])([2H])c1c[nH]c2cccc(O)c12 [CYB003]
Healthy volunteers
  average duration of peak effects: ≈ 2 hours
  time to psychedelic effects: ≤ 15 min

## CN(C)CCc1c[nH]c2ccccc12.O=C(O)/C=C/C(=O)O [DMT fumarate, N,N-dimethyltryptamine fumarate]
Healthy adults [1]
  answer to 'Do you wish you had not gone through that experience?' (tolerability): no
[2]; Group A
  mean CEQ score: 0.360
[2]; Group PA
  mean CEQ score: 0.350
[3]; Day 8, active vs placebo, p=0.002
  difference in mean change from baseline (MADRS) between Group A and Group P: −10.8 points
[3]; Day 15, active vs placebo, p=0.02
  difference in mean change from baseline (MADRS) between Group A and Group P: −7.4 points
[3]; Group A, 1 week from active dose, study Day 8
  Mean change from baseline (MADRS): −12.7
[3]; Group A, 1 week, study Day 8
  % of subjects with a MADRS score ≤ 10: 43.8%
  % of subjects with ≥ 50% reduction from BL (MADRS): 43.8%
  Mean % reduction (MADRS): −48.2%
[3]; Group A, 2 weeks from active dose, study Day 15
  Mean change from baseline (MADRS): −11.0
[3]; Group A, 2 weeks, study Day 15
  % of subjects with a MADRS score ≤ 10: 29.4%
  % of subjects with ≥ 50% reduction from BL (MADRS): 35.3%
  Mean % reduction (MADRS): −41.0%
[3]; Group PA (open label active after placebo), 1 week from active dose, study Day 22
  Mean change from baseline (MADRS): −10.6
[3]; Group PA, 1 week, study Day 22
  % of subjects with a MADRS score ≤ 10: 42.9%
  % of subjects with ≥ 50% reduction from BL (MADRS): 42.9%
  Mean % reduction (MADRS): −40.6%
[3]; Group PA, 2 weeks from active dose, study Day 29
  Mean change from baseline (MADRS): −10.8
[3]; [13]
  % of subjects with a MADRS score ≤ 10: 31.3%
  % of subjects with ≥ 50% reduction from BL (MADRS): 43.8%
  Mean % reduction (MADRS): −36.7%
[3]; Group PA, all open-label study timepoints, p<0.05
  difference in mean total MADRS score, statistical analysis: statistically significant difference
[3]; [14]
  average improvement on the MADRS score: −7.5
  average percent reduction from baseline (MADRS): −18.4%
Healthy adults [4]
  mean CEQ score: 0.172
[5]; Active, blinded phase, Day 15 (two-weeks following blinded dose)
  Wellbeing (WEMWBS CFB): 10.1
[5]; [15]
  Wellbeing (WEMWBS CFB): 9.8
[6]; Active, blinded phase, Day 15, p = 0.03 active vs. placebo
  Anxiety (STAI-T CFB): −11.0
[6]; Group PA, open label phase, Day 105 (12-weeks following the open label dose)
  Anxiety (STAI-T CFB): −14.2
[7]; Active, blinded phase, Day 15, p = 0.002 active vs. placebo
  Self-Reported Depression (BDI CFB): −17.4
[7]; [15]
  Self-Reported Depression (BDI CFB): −19.7
[8]
  drug related serious adverse events: no drug related serious adverse events

## CN(C)CCc1c[nH]c2ccccc12 [DMT, 2-(1H-indol-3-yl)-N,N-dimethylethanamine]
[9]
  mean score to 'how likely are you to use this drug?' (scale 0 to 100): 22.44
[10]
  mean change in HAMD-17 scores: −4.5
Healthy participants
  perceived duration of the psychedelic experience: approximately 25 minutes
[11]
  improvement on the MADRS scale approximated from HAMD-17 change: ~−3.9
[12]
  tolerability score (0-100, 0=intolerable, 100=well tolerated): greater than 70
